Data: ChEMBL document CHEMBL1201862, “PubChem BioAssay data set” (2004)
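Protocol summary: plate cells (96-well), add compound at 5 concentrations, incubate 48 h, interpolate endpoints linearly. Here, GI50 denotes the concentration required for 50% inhibition of growth.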 Active and inactive are the calls of the source. Cut-off read from the data, not from the text of the source: active = GI50 up to about 1.1 µM and inactive = higher.

Columns and labels:
Assay in all cases: growth of human tumour cells (NCI), 48 h
[1] = system: SNB-75
[2] = system: SK-OV-3
[3] = system: RPMI-8226
[4] = system: BT-549
[5] = system: A549
[6] = system: OVCAR-3
[7] = system: CCRF-CEM
[8] = system: K562
[9] = system: IGROV-1
[10] = system: NCI-H23
[11] = system: SF-268
[12] = system: NCI-H226
[13] = system: HCT-15
[14] = system: OVCAR-4
[15] = system: OVCAR-5
[16] = system: SF-539
[17] = system: NCI-H522
[18] = system: TK-10
[19] = system: HCC 2998
[20] = system: SNB-19
[21] = system: EKVX
[22] = system: KM12
[23] = system: RXF 393
[24] = system: UO-31
[25] = system: NCI-H460
[26] = system: Hs-578T
[27] = system: SK-MEL-28
[28] = system: MDA-MB-435
[29] = system: M14
[30] = system: PC-3
[31] = system: SW-620
[32] = system: SK-MEL-2
[33] = system: NCI/ADR-RES
[34] = system: MCF7
[35] = system: HL-60
[36] = system: OVCAR-8
[37] = system: UACC-257
[38] = system: SF-295
[39] = system: HOP-92
[40] = system: HT-29
[41] = system: U-251
[42] = system: ACHN
[43] = system: HOP-62
[44] = system: UACC-62
[45] = system: MDA-MB-231
[46] = system: DU-145
[47] = system: CAKI-1
[48] = system: 786-0
[49] = system: SK-MEL-5
[50] = system: T47D
[51] = system: SR
[52] = system: MOLT-4
[53] = system: MDA-N
[54] = system: Malme-3M
[55] = system: COLO 205
[56] = system: A498
[57] = system: LOX IMVI
[58] = system: SN12C
[59] = system: HCT-116

N#C/N=[N+](\[O-])c1ccc(C(=O)O)cc1
GI50 [1]: 23.1 µM (inactive)
GI50 [2]: 18.6 µM (inactive)
GI50 [3]: 14.5 µM (inactive)
GI50 [4]: 16.4 µM (inactive)
GI50 [5]: > 100 µM (inactive)
GI50 [6]: 15.2 µM (inactive)
GI50 [7]: 32.7 µM (inactive)
GI50 [8]: 15.4 µM (inactive)
GI50 [9]: 43.5 µM (inactive)
GI50 [10]: 17.7 µM (inactive)
GI50 [11]: 19.4 µM (inactive)
GI50 [12]: 19.2 µM (inactive)
GI50 [13]: 16.2 µM
GI50 [14]: 21 µM (inactive)
GI50 [15]: 20 µM (inactive)
GI50 [16]: 16.3 µM (inactive)
GI50 [17]: 19.5 µM (inactive)
GI50 [18]: 17.5 µM (inactive)
GI50 [19]: 25.5 µM (inactive)
GI50 [20]: 16.3 µM (inactive)
GI50 [21]: 18.4 µM (inactive)
GI50 [22]: > 100 µM (inactive)
GI50 [23]: 16.1 µM (inactive)
GI50 [24]: 16.6 µM (inactive)
GI50 [25]: 28.7 µM (inactive)
GI50 [26]: 30.8 µM (inactive)
GI50 [27]: 18.5 µM (inactive)
GI50 [28]: 17.9 µM (inactive)
GI50 [29]: 18.2 µM (inactive)
GI50 [30]: 17.1 µM (inactive)
GI50 [31]: 19.9 µM (inactive)
GI50 [32]: 18.7 µM (inactive)
GI50 [33]: 19.3 µM (inactive)
GI50 [34]: 19.2 µM (inactive)
GI50 [35]: < 0.01 µM (active)
GI50 [36]: 17.6 µM (inactive)
GI50 [37]: 18 µM (inactive)
GI50 [38]: > 100 µM (inactive)
GI50 [39]: 20.4 µM (inactive)
GI50 [40]: 20.3 µM (inactive)
GI50 [41]: 19 µM (inactive)
GI50 [42]: 18.4 µM (inactive)
GI50 [43]: 16.6 µM (inactive)
GI50 [44]: 17.4 µM (inactive)

NC(CO)Cc1c[nH]cn1 (stereo not given)
GI50 [45]: > 100 µM (inactive)
GI50 [4]: > 100 µM (inactive)
GI50 [46]: > 100 µM (inactive)
GI50 [14]: > 10 µM (inactive)
GI50 [15]: > 100 µM (inactive)
GI50 [17]: > 100 µM (inactive)
GI50 [23]: > 10 µM (inactive)
GI50 [29]: > 100 µM (inactive)
GI50 [37]: > 100 µM (inactive)
GI50 [39]: > 10 µM (inactive)
GI50 [47]: > 100 µM (inactive)

COc1ccc([C@@]23CCC(=O)C[C@@H]2N(C)CC3)cc1OC
GI50 [48]: > 100 µM (inactive)
GI50 [1]: > 100 µM (inactive)
GI50 [45]: > 100 µM (inactive)
GI50 [2]: > 100 µM (inactive)
GI50 [49]: > 100 µM (inactive)
GI50 [3]: > 100 µM (inactive)
GI50 [5]: > 100 µM (inactive)
GI50 [50]: > 100 µM (inactive)
GI50 [6]: > 100 µM (inactive)
GI50 [7]: > 100 µM (inactive)
GI50 [8]: > 100 µM (inactive)
GI50 [51]: 66.2 µM (inactive)
GI50 [9]: > 100 µM (inactive)
GI50 [10]: > 100 µM (inactive)
GI50 [11]: > 100 µM (inactive)
GI50 [12]: > 100 µM (inactive)
GI50 [46]: > 100 µM (inactive)
GI50 [13]: > 100 µM
GI50 [14]: > 100 µM (inactive)
GI50 [15]: > 100 µM (inactive)
GI50 [16]: > 100 µM (inactive)
GI50 [52]: > 100 µM (inactive)
GI50 [17]: > 100 µM (inactive)
GI50 [18]: > 100 µM (inactive)
GI50 [53]: > 100 µM (inactive)
GI50 [54]: > 100 µM (inactive)
GI50 [55]: > 100 µM (inactive)
GI50 [19]: > 100 µM (inactive)
GI50 [20]: > 100 µM (inactive)
GI50 [56]: > 100 µM (inactive)
GI50 [21]: > 100 µM (inactive)
GI50 [22]: > 100 µM (inactive)
GI50 [23]: > 100 µM (inactive)
GI50 [24]: > 100 µM (inactive)
GI50 [25]: > 100 µM (inactive)
GI50 [26]: > 100 µM (inactive)
GI50 [27]: > 100 µM (inactive)
GI50 [28]: > 100 µM (inactive)
GI50 [29]: > 100 µM (inactive)
GI50 [30]: > 100 µM (inactive)
GI50 [31]: > 100 µM (inactive)
GI50 [32]: > 100 µM (inactive)
GI50 [33]: > 100 µM (inactive)
GI50 [34]: > 100 µM (inactive)
GI50 [35]: > 100 µM (inactive)
GI50 [36]: > 100 µM (inactive)
GI50 [37]: > 100 µM (inactive)
GI50 [38]: > 100 µM (inactive)
GI50 [39]: > 100 µM (inactive)
GI50 [40]: > 100 µM (inactive)
GI50 [47]: > 100 µM (inactive)
GI50 [41]: > 100 µM (inactive)
GI50 [42]: > 100 µM (inactive)
GI50 [57]: > 100 µM (inactive)
GI50 [43]: > 100 µM (inactive)
GI50 [44]: > 100 µM (inactive)

O=CCOCc1cc2c(cc1Br)OCO2
GI50 [48]: 17.3 µM (inactive)
GI50 [1]: 48.9 µM (inactive)
GI50 [45]: 19.7 µM (inactive)
GI50 [2]: > 100 µM (inactive)
GI50 [49]: 19.3 µM (inactive)
GI50 [3]: 40.6 µM (inactive)
GI50 [5]: > 100 µM (inactive)
GI50 [50]: 21 µM (inactive)
GI50 [6]: 17.3 µM (inactive)
GI50 [7]: 9.93 µM (inactive)
GI50 [8]: 44.6 µM (inactive)
GI50 [51]: 24.7 µM (inactive)
GI50 [9]: 32.8 µM (inactive)
GI50 [10]: 11.8 µM (inactive)
GI50 [58]: 34.5 µM (inactive)
GI50 [11]: 18.6 µM (inactive)
GI50 [59]: 21.6 µM (inactive)
GI50 [46]: 28.2 µM (inactive)
GI50 [13]: 21.9 µM
GI50 [14]: 20.9 µM (inactive)
GI50 [15]: > 100 µM (inactive)
GI50 [16]: 25.2 µM (inactive)
GI50 [52]: 30.1 µM (inactive)
GI50 [17]: 15.7 µM (inactive)
GI50 [18]: 52.1 µM (inactive)
GI50 [53]: 37.2 µM (inactive)
GI50 [55]: > 100 µM (inactive)
GI50 [19]: > 100 µM (inactive)
GI50 [56]: > 100 µM (inactive)
GI50 [21]: > 100 µM (inactive)
GI50 [22]: 33 µM (inactive)
GI50 [23]: 37 µM (inactive)
GI50 [24]: 21.1 µM (inactive)
GI50 [25]: > 100 µM (inactive)
GI50 [26]: 17.1 µM (inactive)
GI50 [27]: 37.9 µM (inactive)
GI50 [28]: > 100 µM (inactive)
GI50 [29]: 20.3 µM (inactive)
GI50 [30]: 21.4 µM (inactive)
GI50 [31]: 20.9 µM (inactive)
GI50 [33]: 21 µM (inactive)
GI50 [34]: 20.3 µM (inactive)
GI50 [35]: 20.9 µM (inactive)
GI50 [36]: 20.7 µM (inactive)
GI50 [37]: > 100 µM (inactive)
GI50 [38]: > 100 µM (inactive)
GI50 [39]: 43.9 µM (inactive)
GI50 [40]: 19 µM (inactive)
GI50 [47]: 19.9 µM (inactive)
GI50 [41]: 31 µM (inactive)
GI50 [42]: 23.1 µM (inactive)
GI50 [57]: 19.6 µM (inactive)
GI50 [43]: > 100 µM (inactive)
GI50 [44]: 43.4 µM (inactive)
